# Experimental data taken from patent US6667335B2, “Imidazole derivatives” (Hoffmann-La Roche Inc., priority 2001, dated 2003).
# Where a name gives a salt, the structure may show the parent alone.
# Legend:
# NMDA-receptor subtype 2B = biological target: T1, NMDA-receptor subtype 2B (Rattus norvegicus, UniProt P35439+Q00960); assay: 3H-Ro 25-6981 binding (displacement) on rat brain membranes; settings: displacement of 5 nM 3H-Ro 25-6981, rat whole brain membranes (minus cerebellum and medulla oblongata), 2 hours at 4° C.
# T1 construct: Membranes were prepared by homogenization of the whole brain minus cerebellum and medulla oblongata; from tissue; host or cells: rat whole brain minus cerebellum and medulla oblongata, membrane preparation
# T1 sequence (Q00960 27-1482, other chains not shown): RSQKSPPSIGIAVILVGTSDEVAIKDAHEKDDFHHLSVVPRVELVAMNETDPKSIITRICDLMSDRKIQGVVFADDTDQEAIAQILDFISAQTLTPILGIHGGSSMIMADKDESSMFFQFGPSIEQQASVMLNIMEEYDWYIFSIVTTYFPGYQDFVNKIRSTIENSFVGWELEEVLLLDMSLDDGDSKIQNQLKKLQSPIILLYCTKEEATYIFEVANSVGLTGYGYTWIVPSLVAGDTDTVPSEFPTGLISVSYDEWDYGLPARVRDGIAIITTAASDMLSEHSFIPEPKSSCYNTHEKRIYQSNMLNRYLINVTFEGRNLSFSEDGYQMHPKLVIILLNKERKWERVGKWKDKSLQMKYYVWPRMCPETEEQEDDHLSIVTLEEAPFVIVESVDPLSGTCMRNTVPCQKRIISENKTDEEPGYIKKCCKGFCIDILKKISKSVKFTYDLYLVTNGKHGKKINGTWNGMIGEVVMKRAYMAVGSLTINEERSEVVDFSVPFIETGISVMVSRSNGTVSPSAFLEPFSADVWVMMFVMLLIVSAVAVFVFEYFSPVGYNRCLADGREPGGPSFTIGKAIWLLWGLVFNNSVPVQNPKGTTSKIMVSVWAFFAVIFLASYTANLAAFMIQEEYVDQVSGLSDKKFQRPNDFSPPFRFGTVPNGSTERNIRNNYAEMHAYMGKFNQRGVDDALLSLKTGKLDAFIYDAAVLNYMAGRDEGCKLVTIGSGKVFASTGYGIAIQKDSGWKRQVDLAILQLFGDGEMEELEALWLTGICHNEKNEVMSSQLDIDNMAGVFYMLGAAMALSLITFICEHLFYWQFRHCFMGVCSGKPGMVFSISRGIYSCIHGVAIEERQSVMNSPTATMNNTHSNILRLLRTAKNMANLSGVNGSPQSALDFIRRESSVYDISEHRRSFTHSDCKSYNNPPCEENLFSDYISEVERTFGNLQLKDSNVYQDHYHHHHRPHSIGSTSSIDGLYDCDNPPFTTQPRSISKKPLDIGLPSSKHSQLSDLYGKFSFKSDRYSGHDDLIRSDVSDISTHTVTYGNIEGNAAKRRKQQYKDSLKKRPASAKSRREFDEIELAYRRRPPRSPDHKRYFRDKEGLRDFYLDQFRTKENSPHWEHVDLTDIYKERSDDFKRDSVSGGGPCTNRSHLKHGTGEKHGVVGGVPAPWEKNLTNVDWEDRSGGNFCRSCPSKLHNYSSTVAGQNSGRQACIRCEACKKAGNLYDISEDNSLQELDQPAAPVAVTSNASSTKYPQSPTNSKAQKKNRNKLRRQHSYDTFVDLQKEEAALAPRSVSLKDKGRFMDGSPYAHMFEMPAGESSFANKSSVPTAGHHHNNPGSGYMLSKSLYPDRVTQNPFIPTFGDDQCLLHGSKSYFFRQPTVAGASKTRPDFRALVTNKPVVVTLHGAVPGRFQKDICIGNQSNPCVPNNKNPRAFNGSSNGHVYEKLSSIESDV
# Experimental: ^3H[R-(R*,S*)]-(α-(4-Hydroxy-phenyl)-β-methyl-4-(phenyl-methyl)-1-piperidine propanol)binding
# Male Füllinsdorf albino rats weighing between 150-200 g were used. Membranes were prepared by homogenization of the whole brain minus cerebellum and medulla oblongata with a Polytron (10.000 rpm, 30 seconds), in 25 volumes of a cold Tris-HCl 50 mM, EDTA 10 mM, pH 7.1 buffer. The homogenate was centrifuged at 48,000 g for 10 minutes at 4° C. The pellet was resuspended using the Polytron in the same volume of buffer and the homogenate was incubated at 37° C. for 10 minutes. After centrifugation the pellet was homogenized in the same buffer and frozen at −80° C. for at least 16 hours but not more than 10 days. For the binding assay the homogenate was thawed at 37° C., centrifuged and the pellet was washed three times as above in a Tris-HCl 5 mM, pH 7.4 cold buffer. The final pellet was resuspended in the same buffer and used at a final concentration of […]. ^3H-Ro 25-6981 binding experiments were performed using a Tris-HCl 50 mM, pH 7.4 buffer. For displacement experiments 5 nM of ^3H-Ro 25-6981 were used and non specific binding was measured using 10 mM of tetrahydroisoquinoline and usually it accounts for 10% of the total. The incubation time was 2 hours at 4° C. and the assay was stopped by filtration on Whatmann GF/B glass fiber filters (Unifilter-96, Packard, Zürich, Switzerland). The filters were washed 5 times with cold buffer. The radioactivity on the filter was counted on a Packard Top-count microplate scintillation counter after addition of […] of microscint 40 (Canberra Packard S.A., Zuirich, Switzerland).
# The effects of compounds were measured using a minimum of 8 concentrations and repeated at least once.
Compound,IC50 (NMDA-receptor subtype 2B) [nM],melting point
"CCCc1nccn1Cc1cn(-c2ccc(Cl)c(Cl)c2)cn1.Cl.Cl [Example 1, 1H-Imidazole, 1-[[1-(3,4-Dichlorophenyl)-1H-imidazol-4-yl]methyl]-2-propyl-, Hydrochloride (1:2)]",7,241 to 243 °C
"Cc1nccn1Cc1cn(-c2ccc(Cl)c(Cl)c2)cn1.Cl.Cl [Example 2, 1H-Imidazole, 1-[[1-(3,4-Dichlorophenyl)-1H-imidazol-4-yl]methyl]-2-methyl-, Hydrochloride (1:2)]",10,> 250 °C
"CCc1nccn1Cc1cn(-c2ccc(Cl)c(Cl)c2)cn1.Cl.Cl [Example 3, 1H-Imidazole, 1-[[1-(3,4-Dichlorophenyl)-1H-imidazol-4-yl]methyl]-2-ethyl-, Hydrochloride (1:2)]",12,> 250 °C
"CC(C)c1nccn1Cc1cn(-c2ccc(Cl)c(Cl)c2)cn1.Cl.Cl [Example 4, 1H-Imidazole, 1-[[1-(3,4-Dichlorophenyl)-1H-imidazol-4-yl]methyl]-2-(1-methylethyl)-, Hydrochloride (1:2)]",17,236 to 238 °C (dec.)
"CCc1nccn1Cc1cn(-c2ccc(Cl)c(C)c2)cn1.Cl.Cl [Example 10, 1H-Imidazole, 1-[[1-(4-Chloro-3-methylphenyl)-1H-imidazol-4-yl]methyl]-2-ethyl-, Hydrochloride (1:2)]",4,186 to 187 °C
"Cc1cc(-n2cnc(Cn3ccnc3C)c2)ccc1Cl.Cl.Cl [Example 11, 1H-Imidazole, 1-[[1-(4-Chloro-3-methylphenyl)-1H-imidazol-4-yl]methyl]-2-methyl-, Hydrochloride (1:2)]",5,218 to 220 °C
"Cc1cc(-n2cnc(Cn3ccnc3)c2)ccc1Cl.Cl.Cl [Example 12, 1H-Imidazole, 1-(4-Chloro-3-methylphenyl)-4-(1H-imidazol-1-yl-methyl)-, Hydrochloride (1:2)]",8,206 to 207 °C
"Cc1cc(-n2cnc(Cn3cnc(C)c3C)c2)ccc1Cl.Cl.Cl [Example 13, 1H-Imidazole, 1-[[1-(4-Chloro-3-methylphenyl)-1H-imidazol-4-yl]methyl]-4,5-dimethyl-, Hydrochloride (1:2)]",95,> 250 °C

# Further lines, results first:
IC50 (NMDA-receptor subtype 2B) [nM],melting point,Compound
9,242 to 243 °C,"Cc1nccn1Cc1cn(-c2ccc3c(c2)CCC3)cn1.Cl.Cl [Example 16, 1H-Imidazole, 1-[[1-(2,3-Dihydro-1H-inden-5-yl)-1H-imidazol-4-yl]methyl]-2-methyl-, Hydrochloride (1:2)]"
12,240 to 241 °C,"CCc1nccn1Cc1cn(-c2ccc3c(c2)CCC3)cn1.Cl.Cl [Example 17, 1H-Imidazole, 1-[[1-(2,3-Dihydro-1H-inden-5-yl)-1H-imidazol-4-yl]methyl]-2-ethyl-, Hydrochloride (1:2)]"
30,–,"Cc1nccn1Cc1cncc(-c2cc(F)cc(C(F)(F)F)c2)c1 [Example 227, 3-(3-Fluoro-5-trifluoromethyl-phenyl)-5-(2-methyl-imidazol-1-ylmethyl)-pyridine]"
12,–,"Clc1ccc(-n2cnc(Cn3ccnc3C3CC3)c2)cc1Cl [Example 229, 1H-Imidazole, 2-Cyclopropyl-1-[[1-(3,4-dichlorophenyl)-1H-imidazol-4-yl]methyl]-,]"
84,–,"Cc1cc(-c2cnc(Cn3ccnc3C)n2C)ccc1F [Example 230, 5-(4-Fluoro-3-methyl-phenyl)-1-methyl-2-(2-methyl-imidazol-1-ylmethyl)-1-H-imidazole Hydrochloride (1:1)]"
40,–,"Cc1cc(-c2cnc(Cn3ccnc3C)n2C)ccc1Cl [Example 232, 5-(4-Chloro-3-methyl-phenyl)-1-methyl-2-(2-methyl-imidazol-1-ylmethyl)-1-H-imidazole-hydrochloride Hydrochloride (1:1)]"
